Laboratory results reported in ChEMBL document CHEMBL5550155, “Discovery of meisoindigo derivatives as noncovalent and orally available Mpro inhibitors: their therapeutic implications in the treatment of COVID-19” (Eur J Med Chem, 2024).
Activity calls are given as the source filed them. The calls are words filed in the database; no cut-off is given here.

Assays:
[1] = target: Replicase polyprotein 1ab (Severe acute respiratory syndrome coronavirus 2) (UniProt P0DTD1); experiment: Inhibition of recombinant SARS-CoV-2 main protease expressed in Escherichia coli BL21 DE3 expression cells using MCA-AVLQSGFR-Lys(Dnp)-Lys-NH2 as substrate at 10 uM incubated for 10 to 15 mins followed by substrate addition by FRET assay relative to control; conditions: time 10-15 min
[2] = target: T1, Replicase polyprotein 1ab (Severe acute respiratory syndrome coronavirus 2, UniProt P0DTD1); experiment: Inhibition of recombinant SARS-CoV-2 main protease expressed in Escherichia coli BL21 DE3 expression cells using MCA-AVLQSGFR-Lys(Dnp)-Lys-NH2 as substrate incubated for 10 to 15 mins followed by substrate addition by FRET assay
[3] = tested on: SARS-CoV-2; experiment: Antiviral activity against wild type SARS-CoV-2 infected in human Calu-3 cells assessed as reduction in viral spike protein level at 10 uM preincubated with cells for 2 hrs followed by viral infection for 1 hr and measured after 24 hrs by Western blot analysis; assay type: functional, organism-based; conditions: Severe acute respiratory syndrome coronavirus 2, time 27.0 hrs
[4] = tested on: SARS-CoV-2; experiment: Antiviral activity against wild type SARS-CoV-2 infected in human Calu-3 assessed as reduction in viral spike protein level at 10 uM preincubated with cells for 2 hrs followed by viral infection for 1 hr and measured after 24 hrs by RT-qPCR analysis; assay type: functional, organism-based; conditions: Severe acute respiratory syndrome coronavirus 2, time 27.0 hrs
[5] = tested on: SARS-CoV-2; experiment: Antiviral activity against wild type SARS-CoV-2 infected in human Calu-3 assessed as reduction in nucleocapsid protein level at 10 uM preincubated with cells for 2 hrs followed by viral infection for 1 hr and measured after 24 hrs by Western blot analysis; assay type: functional, organism-based; conditions: Severe acute respiratory syndrome coronavirus 2, time 27.0 hrs
[6] = tested on: SARS-CoV-2; experiment: Antiviral activity against wild type SARS-CoV-2 infected in human Calu-3 cells assessed as reduction in nucleocapsid protein mRNA level at 10 uM preincubated with cells for 2 hrs followed by viral infection for 1 hr and measured after 24 hrs by RT-qPCR analysis; assay type: functional, organism-based; conditions: Severe acute respiratory syndrome coronavirus 2, time 27.0 hrs
[7] = tested on: SARS-CoV-2; experiment: Antiviral activity against wild type SARS-CoV-2 infected in human HeLa cells expressing ACE2 assessed as reduction in viral spike protein level preincubated with cells for 2 hrs followed by viral infection for 1 hr and measured after 24 hrs by RT-qPCR analysis; assay type: functional, organism-based; conditions: Severe acute respiratory syndrome coronavirus 2, HeLa
[8] = tested on: SARS-CoV-2; experiment: Antiviral activity against wild type SARS-CoV-2 infected in human HeLa cells expressing ACE2 assessed as reduction in nucleocapsid protein level at 10 uM preincubated with cells for 2 hrs followed by viral infection for 1 hr and measured after 24 hrs by Western blot analysis; assay type: functional, organism-based; conditions: Severe acute respiratory syndrome coronavirus 2, time 27.0 hrs
[9] = target: T1, Replicase polyprotein 1ab; experiment: Binding affinity to recombinant SARS-CoV-2 main protease expressed in Escherichia coli BL21 DE3 expression cells assessed as dissociation constant measured for 60 secs by SPR analysis
[10] = tested on: SARS-CoV-2; experiment: Antiviral activity against wild type SARS-CoV-2 infected in human HeLa cells expressing ACE2 assessed as reduction in nucleocapsid protein mRNA level preincubated with cells for 2 hrs followed by viral infection for 1 hr and measured after 24 hrs by RT-qPCR analysis; assay type: functional, organism-based; conditions: Severe acute respiratory syndrome coronavirus 2, HeLa
[11] = tested on: SARS-CoV-2; experiment: Antiviral activity against SARS-CoV-2 infected in African green monkey Vero E6 cells assessed as reduction in viral plaque size pre-infected with virus followed by cell addition for 1 hr and measured after 24 hrs by plaque assay; assay type: functional, organism-based; conditions: Severe acute respiratory syndrome coronavirus 2
[12] = target: T1, Replicase polyprotein 1ab; experiment: Non-covalent inhibition of SARS-CoV-2 main protease incubated for 50 mins followed by substrate addition by FRET assay
[13] = tested on: SARS-CoV-2; experiment: Antiviral activity against SARS-CoV-2 infected in African green monkey Vero E6 cells assessed as reduction in viral plaque number pre-infected with virus followed by cell addition for 1 hr and measured after 24 hrs by plaque assay; assay type: functional, organism-based; conditions: Severe acute respiratory syndrome coronavirus 2
[14] = Solubility of the compound in water incubated for 24 hrs by HPLC analysis; assay type: physicochemical
[15] = n-Octanol/water partition coefficient, logP of the compound incubated for 12 hrs by HPLC analysis; assay type: physicochemical
[16] = target: T1, Replicase polyprotein 1ab; experiment: Non-covalent inhibition of SARS-CoV-2 main protease incubated for 30 mins followed by substrate addition by FRET assay
[17] = target: T1, Replicase polyprotein 1ab; experiment: Non-covalent inhibition of SARS-CoV-2 main protease incubated for 10 mins followed by substrate addition by FRET assay
[18] = tested on: SARS-CoV-2; experiment: Antiviral activity against wild type SARS-CoV-2 infected in human HeLa cells expressing ACE2 assessed as reduction in viral spike protein level at 10 uM preincubated with cells for 2 hrs followed by viral infection for 1 hr and measured after 24 hrs by Western blot analysis; assay type: functional, organism-based; conditions: Severe acute respiratory syndrome coronavirus 2, time 27.0 hrs
[19] = Stability of compound in stimulated gastric fluid assessed as parent compound remaining measured upto 24 hrs by HPLC analysis; assay type: ADME; conditions: simulated gastric fluid, read-out: Stability
[20] = Stability of compound in stimulated intestinal fluid assessed as parent compound remaining measured upto 24 hrs by HPLC analysis; assay type: ADME; conditions: simulated intestinal fluid, read-out: Stability
[21] = Metabolic stability in mouse liver microsomes assessed as parent compound remaining at 10 mg/ml measured after 120 mins by HPLC analysis; assay type: ADME, Microsome; conditions: read-out: Stability
[22] = Metabolic stability in mouse liver microsomes assessed as half life at 10 mg/ml preincubated for 5 mins followed by NADPH addition and measured upto 120 mins by HPLC analysis; assay type: ADME, Microsome; conditions: time < 125 min
[23] = Metabolic stability in mouse liver microsomes assessed as intrinsic clearance at 10 mg/ml preincubated for 5 mins followed by NADPH addition and measured upto 120 mins by HPLC analysis; assay type: ADME, Microsome; conditions: time < 125 min, read-out: CLH

## COc1ccc2c(c1)C1(CC=CCC13C(=O)Nc1ccccc13)C(=O)N2C (stereo not given)
[1]
  inhibition: 4.1%

## COc1ccc2c(c1)/C(=C1\C(=O)Nc3ccccc31)C(=O)N2C
[1]
  inhibition: 91.4%

## O=C(O)CCCCCCCN1C(=O)/C(=C2/C(=O)Nc3ccccc32)c2ccccc21
[1]
  inhibition: 73.8%

## O=C(O)CCCCCCCN1C(=O)/C(=C2/C(=O)Nc3ccccc32)c2cc(Br)ccc21
[2]
  IC50: 1210 nM
[3]
  Activity: Active
[4]
  Activity: Active
[1]
  inhibition: 97.8%
[5]
  Activity: Active
[6]
  Activity: Active

## O=C(O)CCCCCCCN1C(=O)/C(=C2/C(=O)Nc3ccccc32)c2cc(O)ccc21
[1]
  inhibition: 63.7%

## O=C1Nc2ccccc2/C1=C1\C(=O)Nc2ccccc21 [ISOINDIGO]
[2]
  IC50: 1200 nM
[1]
  inhibition: 85.3%

## O=C(O)CCCCCCCCCN1C(=O)/C(=C2/C(=O)Nc3ccccc32)c2cc(Br)ccc21
[1]
  inhibition: 76.8%

## O=C1Nc2ccccc2/C1=C1\C(=O)N(CCBr)c2ccccc21
[1]
  inhibition: 97.4%

## O=C1Nc2ccccc2/C1=C1\C(=O)N(CCN2CCOCC2)c2ccccc21
[1]
  inhibition: 83.9%

## O=C(O)CCCCCN1C(=O)/C(=C2/C(=O)Nc3ccccc32)c2ccccc21
[1]
  inhibition: 59.8%

## CN1C(=O)/C(=C2/C(=O)Nc3ccccc32)c2cc(F)ccc21
[1]
  inhibition: 82.5%

## CN1C(=O)/C(=C2/C(=O)N(CCN)c3ccccc32)c2cc(Br)ccc21.Cl
[2]
  IC50: 1090 nM
[7]
  EC50: 1760 nM
[8]
  Activity: Active
[9]
  Kd: 1270 nM
[10]
  EC50: 2030 nM
[11]
  Activity: Active
[1]
  inhibition: 85.8%
[12]
  IC50: 1490 nM
[13]
  Activity: Active
[14]
  solubility at 24 h: 3810 µg/mL
[15]
  logP at 12 h: 0.59
[16]
  IC50: 1520 nM
[17]
  IC50: 1960 nM
[18]
  Activity: Active
[19]
  remaining at 24 h: 95%
[20]
  remaining at 24 h: 78%

## CN1C(=O)/C(=C2/C(=O)Nc3ccccc32)c2cc(O)ccc21
[3]
  Activity: Active
[4]
  Activity: Active
[1]
  inhibition: 84.2%
[6]
  Activity: Active

## O=C(O)CCCCCCCCCN1C(=O)/C(=C2/C(=O)Nc3ccccc32)c2ccccc21
[1]
  inhibition: 71.2%

## O=C(O)CCCCCCCCCCCN1C(=O)/C(=C2/C(=O)Nc3ccccc32)c2ccccc21
[1]
  inhibition: 72.9%

## CN1C(=O)/C(=C2/C(=O)Nc3ccc(Br)cc32)c2ccccc21
[1]
  inhibition: 94.5%

## CN1C(=O)/C(=C2/C(=O)Nc3ccccc32)c2cc([N+](=O)[O-])ccc21
[1]
  inhibition: 32.8%
[5]
  Activity: Active

## CCOC(=O)CCCCCCCCCN1C(=O)/C(=C2/C(=O)Nc3ccccc32)c2cc(Br)ccc21
[1]
  inhibition: 21.2%

## CN1CCN(CCN2C(=O)/C(=C3/C(=O)Nc4ccccc43)c3ccccc32)CC1
[1]
  inhibition: 91.3%

## CN1C(=O)/C(=C2/C(=O)Nc3ccccc32)c2ccccc21 [MEISOINDIGO]
[2]
  IC50: 15600 nM
[1]
  inhibition: 50.6%

## CC(C)(C)[C@H](NC(=O)C(F)(F)F)C(=O)N1C[C@H]2[C@@H]([C@H]1C(=O)N[C@H](C#N)C[C@@H]1CCNC1=O)C2(C)C
[7]
  EC50: 16900 nM

## CN1C(=O)/C(=C2/C(=O)N(CCN3CCCC3)c3ccccc32)c2ccccc21.Cl
[2]
  IC50: 1150 nM
[8]
  Activity: inactive
[9]
  Kd: 700 nM
[1]
  inhibition: 86.5%
[14]
  solubility at 24 h: 17300 µg/mL
[15]
  logP at 12 h: 0.7
[18]
  Activity: inactive
[19]
  remaining at 24 h: 95.2%
[20]
  remaining at 24 h: 85.3%

## CN1C(=O)/C(=C2/C(=O)Nc3ccccc32)c2cc(Cl)ccc21
[1]
  inhibition: 40.8%

## CN1C(=O)/C(=C2/C(=O)N(CCCN)c3ccc(Br)cc32)c2ccccc21.Cl
[2]
  IC50: 1350 nM
[7]
  EC50: 2740 nM
[8]
  Activity: Active
[9]
  Kd: 16800 nM
[10]
  EC50: 2660 nM
[11]
  Activity: Active
[21]
  remaining at 2 h: 84%
[1]
  inhibition: 90.5%
[22]
  half-life: 495 min
[12]
  IC50: 1340 nM
[13]
  Activity: Active
[14]
  solubility at 24 h: 2490 µg/mL
[15]
  logP at 12 h: 0.29
[16]
  IC50: 1150 nM
[17]
  IC50: 1300 nM
[18]
  Activity: Active
[19]
  remaining at 24 h: 95.3%
[20]
  remaining at 24 h: 73.6%
[23]
  microsomal CLint: 1.4 µL/min/mg

## CN1C(=O)C2(CC=CCC23C(=O)Nc2ccc(Br)cc23)c2ccccc21 (stereo not given)
[1]
  inhibition: 6%

## COc1ccc2c(c1)/C(=C1\C(=O)Nc3ccccc31)C(=O)N2CCCCCCCC(=O)O
[2]
  IC50: 1610 nM
[1]
  inhibition: 89.1%

## CN1C(=O)/C(=C2/C(=O)N(C)c3ccccc32)c2ccccc21
[1]
  inhibition: 25.7%

## CN1C(=O)/C(=C2/C(=O)Nc3ccccc32)c2cc(Br)ccc21
[1]
  inhibition: 32.4%

## COc1ccc2c(c1)/C(=C1\C(=O)N(C)c3ccccc31)C(=O)N2
[1]
  inhibition: 70.7%

## CN1C(=O)C2(CC=CCC23C(=O)Nc2ccccc23)c2ccccc21 (stereo not given)
[1]
  inhibition: 11.9%

## CN1C(=O)/C(=C2/C(=O)N(CCNC(=O)OC(C)(C)C)c3ccccc32)c2ccccc21
[1]
  inhibition: 52.6%

## CCOC(=O)CCCCCCCN1C(=O)/C(=C2/C(=O)Nc3ccccc32)c2cc(Br)ccc21
[1]
  inhibition: 25.2%
